Experimental findings from patent US20250152494A1, “COSMETIC COMPOSITION CONTAINING RETINOID, EXTRACT OF CENTELLA ASIATICA AND A DIPEPTIDE” (THE BOOTS COMPANY PLC, priority 2022, published 2025) are described below.

The test system of the test is IL-6. The test is described as follows: Retinol (Inumax)-induced IL-6 production in primary adult human dermal fibroblast cells. It is filed as cell-based. The conditions noted are these: lower effective retinoid concentrations (lower than 0.5% by weight of the composition). Here is the method: Primary adult human dermal fibroblast cells were incubated with 0.1% microencapsulated retinol commercially available and sold y Evonik under the trade name Inumax. Inumax was diluted in cell culture media to a final concentration of 0.1% and the dilution was used as an inflammatory reaction control. The anti-inflammatory activity of Bisabolol and Centella asiatica was compared in comparison to the control by incubating adult human dermal fibroblast cells with 0.1% inumax in supernatant in the presence of Bisabolol and Centella asiatica, both in combination with dipeptide, at a range of concentrations. Cells were incubated fro 24 hours at 37 C and 5% CO2, in the presence of the actives. At the end of incubation time the supernatant was removed for IL-6 testing. An MTT (3-(4,5-dimethylthiazol-2-yl)-2,5-diphenyltetrazolium bromide) assay was performed on the treated cells to confirm cell metabolic activity following treatment. The levels of IL-6 in supernatant were determined using the Invitrogen IL-6 assay.

α-bisabolol: the “reducing the retinol induced IL-6 production and consequential skin sensitivity” value is reported as “beneficial in reducing the retinol induced IL-6 production”.
